Series [1] is filed under the species Homo sapiens. Description: Modulation of p-glycoprotein in human MDA435/LCC6MDR cells assessed as ratio of IC50 for paclitaxel in absence of drug to IC50 for paclitaxel in presence of 1 uM of drug after 5 days by MTS assay. Format: cell-based. (Tetrazolium assays rely on reduction of a dye to a coloured formazan, in cell work by metabolically active cells.)
The nature of series [2]: Cytotoxicity against human MDA435/LCC6 cells assessed as cell survival at 1 uM after 3 days by MTS/PMS assay. Conditions: mda-435/lcc6, 72 h. It is filed as cell-based.
Series [3] can be described thus: Cytotoxicity against human MDA435/LCC6MDR cells assessed as cell survival at 1 uM after 3 days by MTS/PMS assay. Format: ADME, cell-based. The following applies: 72 h.
The nature of series [4]: Solubility of the compound in phosphate buffer at pH 7.4 by capillary electrophoresis system. It is filed as physicochemical.

Molecules are shown by their SMILES. ≈ marks a conversion by molar mass, not a printed value.

Turning to `COc1ccc(C2=C(c3ccc(OC)c(OC)c3)C(=O)N(C(=O)Nc3ccc4c(c3)C(=O)OC4)C2=O)cc1OC`, the Ratio IC50 in series [1] is 1.1. Besides, the Activity entry in series [2] and in series [3] was “Non-toxic” each time.

In the case of `COc1ccc(C2=C(c3ccc(OC)c(OC)c3)C(=O)N(C(=O)c3ccc(OCc4ccccc4)c(OC)c3)C2=O)cc1OC`, the Activity entry in series [2] and in series [3] was “Non-toxic” in each case. Also, in series [4], the solubility (commonly how much of the substance goes into solution per volume) was 0.405 µg/mL (≈ 0.664 µM).

In the case of `CCCCC1OC(=O)c2cc(NC(=O)N3C(=O)C(c4ccc(OC)c(OC)c4)=C(c4ccc(OC)c(OC)c4)C3=O)ccc21` (stereo not drawn), the Ratio IC50 in series [1] was 2.4. The Activity result in series [2] and in series [3] was “Non-toxic” each time.

As for `COc1ccc(C2=C(c3ccc(OC)c(OC)c3)C(=O)N(C(=O)N3CCN(CC(=O)c4ccc(S(C)(=O)=O)cc4)CC3)C2=O)cc1OC`, the Ratio IC50 in series [1] was found to be 1. The Activity entry in series [2] and in series [3] was “Non-toxic” each time.

As to `COc1ccc(C2=C(c3ccc(OC)c(OC)c3)C(=O)N(CC(=O)c3cc(Br)c(OCc4ccccc4)cc3OCCO)C2=O)cc1OC`, the Ratio IC50 in series [1] turned out to be 21.4. Also, the Activity result in series [2] and in series [3] was “Non-toxic” in each case.

Consider `COc1ccc(C2=C(c3ccc(OC)c(OC)c3)C(=O)N(C(=O)N3CCN(CC(=O)c4ccc(OCc5ccccc5)c(OC)c4)CC3)C2=O)cc1OC`, for which the Ratio IC50 in series [1] stood at 5.4. The Activity entry in series [2] and in series [3] was “Non-toxic” in each case.

The values are drawn from ChEMBL document CHEMBL3600356, “Optimization of permethyl ningalin B analogs as P-glycoprotein inhibitors” (Bioorg Med Chem, 2015).
